The source of these data is patent US4892887A, “N,N'-bis(sulfonyl)hydrazines having antineoplastic activity” (Yale University, priority 1988, dated 1990).

In one series the test system is L1210 leukemia. As to the kind of experiment: Survival time of mice bearing the L1210 leukemia. In kind it is in vivo, mouse (CDF-1 mice). Conditions: for Av. Change wt. %: L1210 mice. From the text: The ascites cell forms of the L1210 leukemia, Sarcoma 180 and P388 leukemia were propagated in CDF-1 mice. […] Mice were weighed during the course of the experiments, and the percentage change in body weight from the onset to termination of therapy was used as an indication of host toxicity.
Each value represents the average of 5 animals per group.

The next series has as its system P388 leukemia. As to the kind of experiment: Survival time of mice bearing the P388 leukemia. In kind it is in vivo, mouse (CDF-1 mice). Conditions: at 150 mg/kg. As to the method:
(§1) The tumor-inhibitory properties of compounds 1-12 were determined by measuring their effects on the survival time of mice bearing the L1210 leukemia and in some cases Sarcoma 180, and the P388 leukemia. The ascites cell forms of the L1210 leukemia, Sarcoma 180 and P388 leukemia were propagated in CDF-1 mice. Transplantation was carried out using donor mice bearing 7-day tumor growths; experimental details are described in Agrawal et al., J. Med. Chem., 11, 700, 1968, incorporated herein by reference. Mice were weighed during the course of the experiments, and the percentage change in body weight from the onset to termination of therapy was used as an indication of host toxicity.

The next series relates to B16 melanoma. As to the kind of experiment: Survival time of mice bearing the B16 melanoma. Particulars: for Max. % T/C: Table IV, B16, at optimum effective daily dose; for Av. Change in wt., %: at optimum effective daily dose, B16 mice; for dosage range of activity against the B16 melanoma: B16 melanoma in mice. In kind it is in vivo, mouse (C57B1 mice).
The next series relates to B16 melanoma cells. The experiment in a line: Cytotoxicity: colony-forming ability of B16 melanoma cells. In kind it is cell-based. Particulars: Mus musculus, 1 hour exposure, 12 days incubation, average of two determinations, read-out: LD50 (the source's name). How it is done:
The cytotoxicity of compounds 8 and 12 was determined by measuring their effects on the colony-forming ability of B16 melanoma cells. The cells were maintained in Eagle's minimum essential medium supplemented with 10% fetal bovine serum. To obtain exponentially growing B16 melanoma cells, a 25 cm^2 flask was inoculated with 10^5 cells for two days before addition of drug. The cell monolayer was exposed to various concentrations of compound for 1 hour. After exposure, the layer was washed twice with PBS to remove the compound. The cells were harvested with 2 mM EDTA in PBS, and 200 cells were plated on a 60 mm dish with 5 mL of medium. After incubation for 12 days, the colonies were stained with crystal violet and counted. […] The LD50 was determined from the individual dose-response curves.

A further series has as its system Sarcoma 180. As to the kind of experiment: Survival time of mice bearing Sarcoma 180. In kind it is in vivo, mouse (CDF-1 mice). As to the method: as §1
Series [1] can be described thus: Alkylation of 4-(4-nitrobenzyl)pyridine, absorbance at 540 nm (modified Wheeler and Chumley). Particulars: (O.D. test sample/O.D. compound 8) × 100; pH 7.4, 37°C, 540 nm. How it is done: Since compounds 1-13 were conceived as prodrugs of the alkylating species (II), representative compounds of this class, viz. 1-6, 8 and 10 were tested for alkylating ability using a modification of the method of Wheeler and Chumley. This method measured the absorbance at 540 nm of the alkylated product of 4-(4-nitrobenzyl)pyridine.
^a A solution of the test sample (12 micromoles) in 1 ml of acetone,
ml of distilled water and 1 ml of TrisHCl buffer (pH 7.4) was incubated
with 4(4-nitrobenzyl) pyridine (148 micromoles in 0.4 ml of acetone) for
hr at 37°C. Following additon of 2 ml of acetone and 1.5 ml of 0.2
M NaOH, the material was extracted with 5 ml of ethyl acetate. The
absorbance was determined at 540 nm 30 seconds after the addition of the
sodium hydroxide solution. The greater the absorbance value, the greater
the degree of alkylation
^b Relative Alkylating activity = (O.D. for test sample/O.D. for […]

Setting [2] is: 50 mg/kg once daily for six days.
Setting [3] is: 100 mg/kg once daily for six days.
[4] abbreviates: 150 mg/kg once daily for six days.
[5] abbreviates: Mus musculus, 144 h, 50 mg/kg once daily for six days, L1210, read-out: % T/C.
Setting [6] is: Mus musculus, 144 h, 100 mg/kg once daily for six days, L1210, read-out: % T/C.
[7] abbreviates: Mus musculus, 144 h, 150 mg/kg once daily for six days, L1210, read-out: % T/C.
Where [8] appears, read: 10 mg/kg once daily for six days.
[9] abbreviates: 20 mg/kg once daily for six days.
[10] abbreviates: 30 mg/kg once daily for six days.

On to `COc1ccc(S(=O)(=O)NN(C)S(=O)(=O)c2ccc(OC)cc2)cc1` [Compound 9, N,N'-bis (p-methoxybenzenesulfonyl)-N-methylhydrazine], for which, in the series on L1210 leukemia (setting [2]), the “Average Survival Time of Treated Animals, days ± SE” value (“Average Survival Time … days ± SE” for short) is recorded as 13.4 ± 1.0 days and the “Av. Change wt. %” value is given as “+10.9%”. For the same compound, in the series with L1210 leukemia (setting [3]), the “Average Survival Time … days ± SE” value was 13.2 ± 1.1 days and the “Av. Change wt. %” value is recorded as “+1.9%”. In the series on L1210 leukemia (setting [4]), the “Average Survival Time … days ± SE” value stood at 12.2 ± 1.2 days and the “Av. Change wt. %” value is recorded as -1.6%. Moreover, in the series with L1210 leukemia (setting [5]), the response vs control in vivo at 50 mg/kg stood at 149%. In addition, in the series on L1210 leukemia (setting [6]), the response vs control in vivo at 100 mg/kg is 147%. The response vs control in vivo at 150 mg/kg in the series with L1210 leukemia (setting [7]) is 136%. Moreover, the “Max. % T/C vs. P388 leukemia” value in the series on P388 leukemia amounted to 136 % T/C. Moreover, in the series with B16 melanoma, the “Max. % T/C” value turned out to be 191 % T/C and the “Av. Change in wt., %” value is reported as “+2.4%”.

With `CCS(=O)(=O)NN(C)S(=O)(=O)c1ccc(C)cc1` [Compound 13], in the series with B16 melanoma, the “Max. % T/C” value is on record as 174 % T/C and the “Av. Change in wt., %” value was -1.1%. The “activity against the B16 melanoma (in words)” value with B16 melanoma (mouse, in vivo) is listed as “appreciable levels of activity against the B16 melanoma”. In the series on B16 melanoma cells, the IC50 amounted to 160 nM.

For the compound `CN(NS(=O)(=O)c1ccccc1)S(=O)(=O)c1ccccc1` [Compound 7, N,N'-bis(benzenesulfonyl)-N-methylhydrazine], in the series on L1210 leukemia (setting [2]), the “Average Survival Time … days ± SE” value is recorded as 13.2 ± 0.7 days and the “Av. Change wt. %” value was -4.8%. In the series on L1210 leukemia (setting [3]), the “Average Survival Time … days ± SE” value stood at 11.6 ± 0.2 days and the “Av. Change wt. %” value is -5.2%. For the same compound, in the series on L1210 leukemia (setting [4]), the “Average Survival Time … days ± SE” value amounted to 9.4 ± 0.4 days and the “Av. Change wt. %” value was -13.5%. The response vs control in vivo at 50 mg/kg with L1210 leukemia (setting [5]) stood at 147%. Moreover, the response vs control in vivo at 100 mg/kg in the series on L1210 leukemia (setting [6]) stood at 129%. In the series with L1210 leukemia (setting [7]), the response vs control in vivo at 150 mg/kg stood at 104%. In the series with Sarcoma 180 (at 100 mg/kg), the “Max. % T/C vs. Sarcoma 180” value came to 203 % T/C. Also, in the series with B16 melanoma, the “Max. % T/C” value came to 175 % T/C and the “Av. Change in wt., %” value was -2.3%.

As for `Cc1ccc(S(=O)(=O)N(C)NS(C)(=O)=O)cc1` [Compound 12], in the series with L1210 leukemia (setting [8]), the “Average Survival Time … days ± SE” value is 14.8 ± 0.4 days and the “Av. Change wt. %” value is given as “+9.1%”. Besides, in the series on L1210 leukemia (setting [9]), the “Average Survival Time … days ± SE” value is given as 15.0 ± 0.7 days and the “Av. Change wt. %” value was -2.0%. Moreover, in the series on L1210 leukemia (setting [10]), the “Average Survival Time … days ± SE” value came to 19.2 ± 2.0 days and the “Av. Change wt. %” value is recorded as -7.9%. The response vs control in vivo at 10 mg/kg in the series on L1210 leukemia (Mus musculus, 144 h, 10 mg/kg once daily for six days, L1210, read-out: % T/C) amounted to 161%. Further, the response vs control in vivo at 20 mg/kg in the series on L1210 leukemia (Mus musculus, 144 h, 20 mg/kg once daily for six days, L1210, read-out: % T/C) stood at 163%. Besides, the response vs control in vivo at 30 mg/kg in the series with L1210 leukemia (Mus musculus, 144 h, 30 mg/kg once daily for six days, L1210, read-out: % T/C) is 209%. Also, in the series on L1210 leukemia (mouse, in vivo), the “activity against the L1210 leukemia (in words)” value is on record as “high level of activity against the L1210 leukemia”. Moreover, the “% T/C” value with B16 melanoma (B16, daily dosage of 10 mg/kg (Table IV footnote d)) was determined as 206 % T/C. Moreover, the “% T/C” value with B16 melanoma (B16, daily dosage of 20 mg/kg (Table IV footnote d)) was found to be 206 % T/C. Besides, in the series on B16 melanoma, the “dosage range of activity against the B16 melanoma” value lay within 10 to 30 mg/kg; the “Max. % T/C” value was determined as 207 % T/C; the “Av. Change in wt., %” value is reported as -1.9%. Further, the “toxicity at higher dosage levels (in words)” value with B16 melanoma (above 10-30 mg/kg) was “toxic at higher dosage levels”. The IC50 in the series with B16 melanoma cells turned out to be 620 nM.

Turning to `Cc1ccc(S(=O)(=O)NN(C)S(=O)(=O)c2ccc(C)cc2)cc1` [Compound 8, N,N'-bis (4-toluenesulfonyl)-N-methylhydrazine], in series [1], the “Relative Alkylating Activity” value was found to be 100. Further, in the series with L1210 leukemia (setting [2]), the “Average Survival Time … days ± SE” value is 14.0 ± 1.3 days and the “Av. Change wt. %” value is reported as “+3.7%”. Also, in the series on L1210 leukemia (setting [3]), the “Average Survival Time … days ± SE” value is 13.6 ± 2.4 days and the “Av. Change wt. %” value is on record as “+0.8%”. For the same compound, in the series on L1210 leukemia (setting [5]), the response vs control in vivo at 50 mg/kg turned out to be 147%. In addition, in the series with L1210 leukemia (setting [6]), the response vs control in vivo at 100 mg/kg was found to be 143%. In addition, the “Antineoplastic Activity (max. % T/C from Table III)” value in the series with L1210 leukemia (Table II, L1210 leukemia, max. % T/C) is given as 147 % T/C. Besides, the “Max. % T/C vs. Sarcoma 180” value in the series with Sarcoma 180 (at 50 mg/kg) stood at 197 % T/C. Moreover, in the series with B16 melanoma, the “dosage range of activity against the B16 melanoma” value lay within 50 to 150 mg/kg; the “Max. % T/C” value turned out to be 165 % T/C; the “Av. Change in wt., %” value is recorded as -2.7%.
